According to ChEMBL document CHEMBL1909046, “DrugMatrix in vitro pharmacology data”:

Legend:
[1] = target: Voltage-gated inwardly rectifying potassium channel KCNH2 (Homo sapiens, UniProt Q12809); details: hek293; note: in other assays of this panel Not Active means under 50% inhibition at 10 µM
Cytochrome P450 2C9 = Cytochrome P450 2C9 (Homo sapiens, UniProt P11712); details: bti-tn-5b1-4; note: in other assays of this panel Not Active means under 50% inhibition at 10 µM
[2] = DRUGMATRIX: Interleukin IL-1 radioligand binding (ligand: [125I] interleukin 1beta); assay type: cell membranes, Membrane; details: nih3t3; Not Active = under 50% inhibition at 10 µM
[3] = target: Protein phosphatase 3 catalytic subunit alpha (Homo sapiens, UniProt Q08209); parameters: species or system Escherichia coli;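 note: inhibition of calcineurin (PP2B) enzyme activity, measured with DiFMUP as the substrate; in other assays of this panel Not Active means under 50% inhibition at 10 µM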
[4] = target: 5-hydroxytryptamine receptor 2B (Homo sapiens, UniProt P41595); assay type: cell membranes, CHO-K1, Membrane; note: in other assays of this panel Not Active means under 50% inhibition at 10 µM
[5] = DRUGMATRIX: Calcium Channel Type L, Phenylalkylamine radioligand binding (ligand: [3H] (-)-Desmethoxyverapamil (D-888)); assay type: cell membranes, Rattus norvegicus, Wistar, Brain, Membrane; details: Not Active = under 50% inhibition at 10 µM
D(4) dopamine receptor = target: T1, D(4) dopamine receptor (Homo sapiens, UniProt P21917); assay: DRUGMATRIX: Dopamine D4.2 radioligand binding (ligand: [3H] Spiperone); assay type: cell membranes, CHO-K1, Membrane; details: cho-k1; Not Active = under 50% inhibition at 10 µM
T1 sequence (P21917 whole entry): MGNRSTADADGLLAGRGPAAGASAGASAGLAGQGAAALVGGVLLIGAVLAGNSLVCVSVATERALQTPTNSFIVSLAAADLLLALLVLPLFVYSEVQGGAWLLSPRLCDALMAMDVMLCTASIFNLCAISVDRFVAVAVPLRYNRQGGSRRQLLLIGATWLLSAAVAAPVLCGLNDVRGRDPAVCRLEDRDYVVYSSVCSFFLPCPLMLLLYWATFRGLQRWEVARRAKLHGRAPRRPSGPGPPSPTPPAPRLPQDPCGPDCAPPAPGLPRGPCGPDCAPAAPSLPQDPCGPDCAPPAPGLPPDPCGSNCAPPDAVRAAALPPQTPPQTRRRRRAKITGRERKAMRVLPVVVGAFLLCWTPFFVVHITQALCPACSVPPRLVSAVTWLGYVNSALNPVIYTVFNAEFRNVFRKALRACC

Voltage-gated inwardly rectifying potassium channel KCNH2, sequence (Q12809 whole entry): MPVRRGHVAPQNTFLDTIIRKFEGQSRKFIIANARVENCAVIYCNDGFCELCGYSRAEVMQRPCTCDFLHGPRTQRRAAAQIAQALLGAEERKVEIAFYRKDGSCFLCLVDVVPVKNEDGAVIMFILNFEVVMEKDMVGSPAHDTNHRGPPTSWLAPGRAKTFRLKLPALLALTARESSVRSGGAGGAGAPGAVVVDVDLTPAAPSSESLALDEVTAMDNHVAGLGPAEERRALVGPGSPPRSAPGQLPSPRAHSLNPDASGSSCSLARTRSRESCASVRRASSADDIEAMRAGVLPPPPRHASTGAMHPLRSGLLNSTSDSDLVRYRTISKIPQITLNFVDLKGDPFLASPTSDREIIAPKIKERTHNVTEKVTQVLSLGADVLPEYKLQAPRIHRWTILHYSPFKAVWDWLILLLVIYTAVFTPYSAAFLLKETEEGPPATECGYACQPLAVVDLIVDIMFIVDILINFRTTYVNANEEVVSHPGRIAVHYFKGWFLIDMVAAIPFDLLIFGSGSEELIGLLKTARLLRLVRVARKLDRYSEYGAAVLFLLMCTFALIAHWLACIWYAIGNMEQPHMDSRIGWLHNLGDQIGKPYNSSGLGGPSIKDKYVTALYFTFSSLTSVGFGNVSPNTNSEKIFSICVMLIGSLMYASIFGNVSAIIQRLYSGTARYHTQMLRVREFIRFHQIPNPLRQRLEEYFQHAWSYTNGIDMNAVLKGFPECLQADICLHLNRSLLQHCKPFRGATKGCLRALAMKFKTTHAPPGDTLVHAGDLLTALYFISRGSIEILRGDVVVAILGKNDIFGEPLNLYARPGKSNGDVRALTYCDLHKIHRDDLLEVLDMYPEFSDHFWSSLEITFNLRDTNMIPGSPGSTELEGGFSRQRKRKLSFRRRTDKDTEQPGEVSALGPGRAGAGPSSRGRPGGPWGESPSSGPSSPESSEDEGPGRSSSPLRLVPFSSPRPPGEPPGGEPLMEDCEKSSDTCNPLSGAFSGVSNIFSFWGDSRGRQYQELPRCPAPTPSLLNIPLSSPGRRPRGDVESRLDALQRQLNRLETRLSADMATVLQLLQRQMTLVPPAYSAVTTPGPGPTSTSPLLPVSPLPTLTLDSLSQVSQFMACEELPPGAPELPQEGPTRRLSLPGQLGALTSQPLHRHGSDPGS
5-hydroxytryptamine receptor 2B, sequence (P41595 whole entry): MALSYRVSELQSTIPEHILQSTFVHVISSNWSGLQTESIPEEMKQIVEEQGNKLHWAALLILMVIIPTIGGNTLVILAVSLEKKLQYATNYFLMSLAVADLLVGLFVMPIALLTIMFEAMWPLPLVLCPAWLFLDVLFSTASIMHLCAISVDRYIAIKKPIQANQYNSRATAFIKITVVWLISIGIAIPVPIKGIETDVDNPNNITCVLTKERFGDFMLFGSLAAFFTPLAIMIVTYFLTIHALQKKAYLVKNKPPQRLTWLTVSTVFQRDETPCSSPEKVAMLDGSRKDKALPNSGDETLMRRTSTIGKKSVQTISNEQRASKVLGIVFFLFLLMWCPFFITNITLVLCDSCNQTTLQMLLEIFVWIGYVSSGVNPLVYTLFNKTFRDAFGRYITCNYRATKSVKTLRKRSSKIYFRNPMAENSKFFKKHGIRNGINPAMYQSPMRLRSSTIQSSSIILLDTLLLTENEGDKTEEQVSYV
Cytochrome P450 2C9, sequence (P11712 whole entry): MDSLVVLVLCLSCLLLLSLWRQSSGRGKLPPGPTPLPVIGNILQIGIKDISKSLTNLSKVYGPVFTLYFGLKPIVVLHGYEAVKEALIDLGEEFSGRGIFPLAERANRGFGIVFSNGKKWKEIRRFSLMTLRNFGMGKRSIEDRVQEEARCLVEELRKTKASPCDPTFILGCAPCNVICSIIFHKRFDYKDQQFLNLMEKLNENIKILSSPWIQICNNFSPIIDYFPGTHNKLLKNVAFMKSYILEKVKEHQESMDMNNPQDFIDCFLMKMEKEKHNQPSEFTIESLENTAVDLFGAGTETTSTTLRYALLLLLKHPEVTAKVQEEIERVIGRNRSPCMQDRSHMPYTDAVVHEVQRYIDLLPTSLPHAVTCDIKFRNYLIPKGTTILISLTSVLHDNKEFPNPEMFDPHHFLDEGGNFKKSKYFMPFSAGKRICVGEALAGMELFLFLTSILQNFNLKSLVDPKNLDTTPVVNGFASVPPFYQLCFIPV

O=C1Nc2ccc(Cl)cc2C(c2ccccc2Cl)=NC1O (stereo not drawn) [LORAZEPAM]
IC50 [1]: Not Active
Ki [1]: Not Active
IC50 (Cytochrome P450 2C9): Not Active
Ki (Cytochrome P450 2C9): Not Active
IC50 [2]: Not Active
Ki [2]: Not Active
IC50 [3]: Not Active
IC50 ([4]; cho-k1): Not Active
IC50 [5]: Not Active
Ki [5]: Not Active
IC50 (D(4) dopamine receptor): Not Active

CC(C)Cc1ccc([C@@H](C)C(=O)O)cc1 [(R)-IBUPROPHEN]
IC50 [1]: Not Active
Ki [1]: Not Active
IC50 (Cytochrome P450 2C9): Not Active
Ki (Cytochrome P450 2C9): Not Active
IC50 [2]: Not Active
Ki [2]: Not Active
IC50 [3]: Not Active
IC50 ([4]; cho-k1): Not Active
IC50 [5]: Not Active
Ki [5]: Not Active
IC50 (D(4) dopamine receptor): Not Active

CN(C/C=C/C#CC(C)(C)C)Cc1cccc2ccccc12 [TERBINAFINE]
IC50 [1]: Not Active
Ki [1]: Not Active
IC50 (Cytochrome P450 2C9): Not Active
Ki (Cytochrome P450 2C9): Not Active
IC50 [2]: Not Active
Ki [2]: Not Active
IC50 [3]: Not Active
IC50 ([4]; cho-k1): Not Active
IC50 [5]: Not Active
Ki [5]: Not Active
IC50 (D(4) dopamine receptor): Not Active

CC(C)NCC(O)c1ccc(NS(C)(=O)=O)cc1 (stereo not drawn) [SOTALOL]
IC50 [1]: Not Active
Ki [1]: Not Active
IC50 (Cytochrome P450 2C9): Not Active
Ki (Cytochrome P450 2C9): Not Active
IC50 [2]: Not Active
Ki [2]: Not Active
IC50 [3]: Not Active
IC50 ([4]; cho-k1): Not Active
IC50 [5]: Not Active
Ki [5]: Not Active
IC50 (D(4) dopamine receptor): Not Active

CO[C@@H]1[C@@H](OC)[C@H](C)[C@@](O)(CC(=O)O)O[C@H]1[C@H](C)[C@H]1O[C@@]2(CC[C@@](C)([C@H]3CC[C@@](C)([C@@H]4O[C@@H]([C@H]5O[C@](C)(O)[C@H](C)C[C@@H]5C)C[C@@H]4O[C@@H]4C[C@H](OC)[C@@H](OC)[C@H](C)O4)O3)O2)C[C@H](O)[C@H]1C [MADURAMICIN ACID]
IC50 [1]: Not Active
Ki [1]: Not Active
IC50 (Cytochrome P450 2C9): Not Active
Ki (Cytochrome P450 2C9): Not Active
IC50 [2]: Not Active
Ki [2]: Not Active
IC50 [3]: Not Active
IC50 ([4]; read-out: IC50): 33 nM
Ki ([4]; read-out: Ki): 21 nM
IC50 [5]: Not Active
Ki [5]: Not Active
IC50 (D(4) dopamine receptor): Not Active

SODIUM ORTHOVANAD
IC50 [1]: Not Active
Ki [1]: Not Active
IC50 (Cytochrome P450 2C9): Not Active
Ki (Cytochrome P450 2C9): Not Active
IC50 [2]: Not Active
Ki [2]: Not Active
IC50 [3]: Not Active
Ki [3]: Not Active
IC50 ([4]; cho-k1): Not Active
Ki ([4]; cho-k1): Not Active
IC50 [5]: Not Active
Ki [5]: Not Active
IC50 (D(4) dopamine receptor): Not Active
Ki (D(4) dopamine receptor): Not Active

Cc1cccc(C)c1OCC(C)N (stereo not drawn) [MEXILETINE]
IC50 [1]: Not Active
Ki [1]: Not Active
IC50 (Cytochrome P450 2C9): Not Active
Ki (Cytochrome P450 2C9): Not Active
IC50 [2]: Not Active
Ki [2]: Not Active
IC50 [3]: Not Active
IC50 ([4]; read-out: IC50): 1140 nM
Ki ([4]; read-out: Ki): 724 nM
IC50 [5]: Not Active
Ki [5]: Not Active
IC50 (D(4) dopamine receptor): Not Active

CC(C)NCC(O)c1ccc(O)c(O)c1 (stereo not drawn) [ISOPROTERENOL]
IC50 [1]: Not Active
Ki [1]: Not Active
IC50 (Cytochrome P450 2C9): Not Active
Ki (Cytochrome P450 2C9): Not Active
IC50 [2]: Not Active
Ki [2]: Not Active
IC50 [3]: Not Active
IC50 ([4]; cho-k1): Not Active
IC50 [5]: Not Active
Ki [5]: Not Active
IC50 (D(4) dopamine receptor): Not Active

NC1CCN(c2nc3c(cc2F)c(=O)c(C(=O)O)cn3-c2ccc(F)cc2F)C1 (stereo not drawn) [TOSUFLOXACIN]
IC50 [1]: Not Active
Ki [1]: Not Active
IC50 (Cytochrome P450 2C9): Not Active
Ki (Cytochrome P450 2C9): Not Active
IC50 [2]: Not Active
Ki [2]: Not Active
IC50 [3]: Not Active
IC50 ([4]; cho-k1): Not Active
IC50 [5]: Not Active
Ki [5]: Not Active
IC50 (D(4) dopamine receptor): Not Active

O=C(Oc1ccccc1C(=O)O)c1ccccc1O [SALSALATE]
IC50 [1]: Not Active
Ki [1]: Not Active
IC50 (Cytochrome P450 2C9): Not Active
Ki (Cytochrome P450 2C9): Not Active
IC50 [2]: Not Active
Ki [2]: Not Active
IC50 [3]: Not Active
IC50 ([4]; cho-k1): Not Active
IC50 [5]: Not Active
Ki [5]: Not Active
IC50 (D(4) dopamine receptor): Not Active

O=C1C(CC[S+]([O-])c2ccccc2)C(=O)N(c2ccccc2)N1c1ccccc1 (stereo not drawn) [SULFINPYRAZONE]
IC50 [1]: Not Active
Ki [1]: Not Active
IC50 (Cytochrome P450 2C9): Not Active
Ki (Cytochrome P450 2C9): Not Active
IC50 [2]: Not Active
Ki [2]: Not Active
IC50 [3]: Not Active
IC50 ([4]; cho-k1): Not Active
IC50 [5]: Not Active
Ki [5]: Not Active
IC50 (D(4) dopamine receptor): Not Active

C[C@H]1C[C@@H]2[C@H]([C@@H](O)C[C@@]3(C)[C@H]2CC[C@]3(O)C(=O)CO)[C@@]2(C)C=CC(=O)C=C12 [METHYLPREDNISOLONE]
IC50 [1]: Not Active
Ki [1]: Not Active
IC50 (Cytochrome P450 2C9): Not Active
Ki (Cytochrome P450 2C9): Not Active
IC50 [2]: Not Active
Ki [2]: Not Active
IC50 [3]: Not Active
IC50 ([4]; cho-k1): Not Active
IC50 [5]: Not Active
Ki [5]: Not Active
IC50 (D(4) dopamine receptor): Not Active

N#Cc1ccc(C(c2ccc(C#N)cc2)n2cncn2)cc1 [LETROZOLE]
IC50 [1]: Not Active
Ki [1]: Not Active
IC50 (Cytochrome P450 2C9): Not Active
Ki (Cytochrome P450 2C9): Not Active
IC50 [2]: Not Active
Ki [2]: Not Active
IC50 [3]: Not Active
IC50 ([4]; cho-k1): Not Active
IC50 [5]: Not Active
Ki [5]: Not Active
IC50 (D(4) dopamine receptor): Not Active

O=C(O)c1cn(-c2ccc(F)cc2)c2cc(N3CCNCC3)c(F)cc2c1=O [SARAFLOXACIN]
IC50 [1]: Not Active
Ki [1]: Not Active
IC50 (Cytochrome P450 2C9): Not Active
Ki (Cytochrome P450 2C9): Not Active
IC50 [2]: Not Active
Ki [2]: Not Active
IC50 [3]: Not Active
IC50 ([4]; cho-k1): Not Active
IC50 [5]: Not Active
Ki [5]: Not Active
IC50 (D(4) dopamine receptor): Not Active

CO[C@H]1/C=C/O[C@@]2(C)Oc3c(C)c(O)c4c(O)c(c(/C=N/N5CCN(C6CCCC6)CC5)c(O)c4c3C2=O)NC(=O)/C(C)=C\C=C\[C@H](C)[C@H](O)[C@@H](C)[C@@H](O)[C@@H](C)[C@H](OC(C)=O)[C@@H]1C [RIFAPENTINE]
IC50 [1]: Not Active
Ki [1]: Not Active
IC50 (Cytochrome P450 2C9): Not Active
Ki (Cytochrome P450 2C9): Not Active
IC50 [2]: Not Active
Ki [2]: Not Active
IC50 [3]: Not Active
IC50 ([4]; cho-k1): Not Active
IC50 [5]: Not Active
Ki [5]: Not Active
IC50 (D(4) dopamine receptor): Not Active

CCCCOc1cc(CC2CNC(=O)N2)ccc1OC (stereo not drawn) [RO-201724]
IC50 [1]: Not Active
Ki [1]: Not Active
IC50 (Cytochrome P450 2C9): Not Active
Ki (Cytochrome P450 2C9): Not Active
IC50 [2]: Not Active
Ki [2]: Not Active
IC50 [3]: Not Active
IC50 ([4]; cho-k1): Not Active
IC50 [5]: Not Active
Ki [5]: Not Active
IC50 (D(4) dopamine receptor): Not Active

CC[C@@H](C(=O)[C@@H](C)[C@@H](O)[C@H](C)[C@@H]1O[C@@H]([C@@H](CC)C(=O)O)CC[C@@H]1C)[C@H]1O[C@]2(C=C[C@@H](O)[C@]3(CC[C@@](C)([C@H]4CC[C@](O)(CC)[C@H](C)O4)O3)O2)[C@H](C)C[C@@H]1C [SALINOMYCIN]
IC50 [1]: Not Active
Ki [1]: Not Active
IC50 (Cytochrome P450 2C9): Not Active
Ki (Cytochrome P450 2C9): Not Active
IC50 [2]: Not Active
Ki [2]: Not Active
IC50 [3]: Not Active
IC50 ([4]; cho-k1): Not Active
IC50 [5]: Not Active
Ki [5]: Not Active
IC50 (D(4) dopamine receptor): Not Active

CCN(CC)CCNC(=O)c1cc(S(C)(=O)=O)ccc1OC [TIAPRIDE]
IC50 [1]: Not Active
Ki [1]: Not Active
IC50 (Cytochrome P450 2C9): Not Active
Ki (Cytochrome P450 2C9): Not Active
IC50 [2]: Not Active
Ki [2]: Not Active
IC50 [3]: Not Active
IC50 ([4]; cho-k1): Not Active
IC50 [5]: Not Active
Ki [5]: Not Active
IC50 (D(4) dopamine receptor): Not Active
